# In patent publication US12303474B2, “S-enantiomerically enriched compositions of beta blockers for treating amyotrophic lateral sclerosis” (priority 2013, dated 2025):
# Where two headings read alike, the source gives them in different places.
# How the values were obtained:
# [1] = tested on: G93A SOD1 B6SJL hybrid (G93A) model; conditions: 3 mg/kg/day; placebo 28 days;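 as to Median survival after onset of ALS symptoms: dosing began after ALS onset in G93A SOD1 mice, with survival as the endpoint, defined humanely as the animal failing to regain upright posture within 30 s when placed sideways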
# Excerpt: To study the effect of S-oxprenolol on survival, survival was monitored over time.
# [2] = tested on: G93A SOD1 B6SJL hybrid (G93A) model; assay: Disease progression score (JAX SOP) in G93A SOD1 transgenic mice; conditions: 30 mg/kg/day vs. placebo
# Excerpt: The disease progression score is based on the JAX SOP (Ludolph A C, Bendotti C, Blaugrund E, Hengerer B, Loffler J P, Martin J, Meininger V, Meyer T, Moussaoui S, Robberecht W, Scott S, Silani V, Van Den Berg L H (ENMC Group For The Establishment Of Guidelines For The Conduct Of Preclinical And Proof Of Concept Studies In ALS/MND Models). 2007, which is incorporated by reference).
# [3] = tested on: G93A SOD1 B6SJL hybrid (G93A) model; assay: Body weight and body composition (lean mass, fat mass; NMR scans) in G93A SOD1 transgenic mice; assay type: in vivo; conditions: 30 mg/kg/d; for Average Δ body weight / Average Δ fat mass / Average Δ lean mass: per day alive after disease onset
# Excerpt: (§1) Transgenic mice over-expressing a high copy number (25 copies) of mutated human SOD1 gene with a G93A point mutation, i.e., B6SJL-TgN [SOD1-G93A]1 Gur (G1H-G93A transgenic mice, JR2726; Hemizygote) (Gurney M E, et al., Science, 264, 1772-1775, 1994) (“G93A SOD1 B6SJL hybrid (G93A) model”), were used.
# […] […] There were 16 mice in the S-oxprenolol group.
# The primary endpoint was survival, humanely defined as the ability of the animal to right itself in 30 seconds after being laid on its side. Secondary endpoints were body weight, body composition, spontaneous activity and food intake. Body weight of the animals was assessed weekly until onset of disease. Additionally, body composition (fat mass and lean body mass) was assessed using NMR scans (EchoMRI-100, Echo Medical Systems, Houston, USA) every 4 days. After onset of disease, body weight and body composition were assessed every two days until the end of the study. All personal handling the animals was strictly blinded to the randomized treatment allocation.
# To study the effect of S-oxprenolol on body weight, body weight was monitored over time.
# To study the effect of the test compounds on lean body mass, lean mass was determined at the end of the study.
# To study the effect of the test compounds on fat mass, the fat mass were determined at the end of the study.
# To study the effect of S-oxprenolol on body weight, body weight was monitored over time. […] The number of all mice in the population is indicated as “n” in at the bottom of FIGS. 20A-20C.
# To study the effect of the test compounds on lean body mass, lean mass was determined at the end of the study. […] The number of all mice in the population is indicated as “n” in at the bottom of FIGS. 20D-20F.
# To study the effect of the test compounds on fat mass, the fat mass were determined at the end of the study. […] The number of all mice in the population is indicated as “n” in at the bottom of FIGS. 20G-20I.
# [4] = tested on: G93A SOD1 B6SJL hybrid (G93A) model; conditions: 30 mg/kg/d; for Heart / gastrocnemius: end of study;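 as to Median survival after onset of ALS symptoms: dosing began after ALS onset in G93A SOD1 mice, with survival as the endpoint, defined humanely as the animal failing to regain upright posture within 30 s when placed sideways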
# Method: as §1
# To study the effect of the test compounds on skeletal muscle atrophy, the skeletal muscle mass were determined at the end of the study.
# The number of all mice in the population is indicated as “n” in at the bottom of FIGS. 21A-21C.
# The number of all mice in the population is indicated as “n” in at the bottom of FIGS. 20D-20F.
# The number of all mice in the population is indicated as “n” in at the bottom of FIGS. 21G-21I.
structure (smiles),measurement,setting,value
CC(C)NCC(O)COc1cccc2[nH]ccc12 (stereo not shown) [S-pindolol],Median survival after onset of ALS symptoms,[1],31 days
Nc1nc2ccc(OC(F)(F)F)cc2s1 [rilutek],HR Progression from score 1 to score 2 (FIG. 17),[2],0.82
same,HR Progression from score 1 to score 3 (FIG. 19),[2],0.76
same,HR Progression from score 2 to score 3 (FIG. 18),[2],0.68
same,Δ body weight,[3]; all mice,-5.10 ± 0.35 g
same,Δ fat mass,[3]; all mice,-1.91 ± 0.15 g
same,Δ lean mass,[3]; all mice,-3.71 ± 0.27 g
same,Average Δ body weight,[3]; all mice,-121.6 ± 15.2 mg/day
same,Average Δ fat mass,[3]; all mice,-50.1 ± 6.1 mg/day
same,Average Δ lean mass,[3]; all mice,-92.31 ± 15.84 mg/day
same,Δ body weight,[3]; female mice,-4.49 ± 0.46 g
same,Δ fat mass,[3]; female mice,-1.76 ± 0.21 g
same,Δ lean mass,[3]; female mice,-3.31 ± 0.37 g
same,Average Δ body weight,[3]; female mice,-122.9 ± 25.7 mg/day
same,Average Δ fat mass,[3]; female mice,-42.2 ± 6.1 mg/day
same,Average Δ lean mass,[3]; female mice,-96.9 ± 24.2 mg/day
same,Δ body weight,[3]; male mice,-5.91 ± 0.43 g
same,Δ fat mass,[3]; male mice,-2.09 ± 0.22 g
same,Δ lean mass,[3]; male mice,-4.19 ± 0.38 g
same,Average Δ body weight,[3]; male mice,-120.4 ± 17.9 mg/day
same,Average Δ fat mass,[3]; male mice,-57.5 ± 11.3 mg/day
same,Average Δ lean mass,[3]; male mice,-87.4 ± 21.1 mg/day
same,EDL (extensor digitorum longus),[4]; all mice,6.71 ± 0.32 mg
same,soleus,[4]; all mice,5.47 ± 0.39 mg
same,Heart,[4]; all mice,103.5 ± 2.8 mg
same,gastrocnemius,[4]; all mice,55.2 ± 3.0 mg
same,EDL (extensor digitorum longus),[4]; female mice,6.28 ± 039 mg
same,soleus,[4]; female mice,5.26 ± 0.48 mg
same,Heart,[4]; female mice,91.4 ± 2.3 mg
same,gastrocnemius,[4]; female mice,54.1 ± 3.8 mg
same,EDL (extensor digitorum longus),[4]; male mice,7.20 ± 0.51 mg
same,soleus,[4]; male mice,5.72 ± 0.64 mg
same,Heart,[4]; male mice,115.6 ± 2.4 mg
same,gastrocnemius,[4]; male mice,58.3 ± 4.9 mg
